Source: patent publication US8952024B2, “Herbicidal pyrimidone derivatives” (E I du Pont de Nemours and Company, priority 2009, dated 2015)

Columns and labels:
Assay in all cases: Test D pre-/postemergence plant response
Type in all cases: in vivo
[1] = tested on: dallisgrass (Paspalum dilatatum)
Description: (§1) Seeds of plant species selected from bermudagrass (Cynodon dactylon), Surinam grass (Brachiaria decumbens), large crabgrass (Digitaria sanguinalis), green foxtail (Setaria viridis), goosegrass (Eleusine indica), johnsongrass (Sorghum halepense), kochia (Kochia scoparia), morningglory (pitted morningglory, Ipomoea lacunosa), nutsedge (purple nutsedge, Cyperus rotundus), ragweed (common ragweed, Ambrosia elatior), black mustard (Brassica nigra), guineagrass (Panicum maximum), dallisgrass (Paspalum dilatatum), barnyardgrass (Echinochloa crus-galli), sandbur (southern sandbur, Cenchrus echinatus), sowthistle (common sowthistle, Sonchus oleraceous), prickly sida (Sida spinosa), Italian ryegrass (Lolium multiflorum), purslane (common purslane, Portulaca oleracea), signalgrass (broadleaf signalgrass, Brachiaria platyphylla), groundsel (common groundsel, Senecio vulgaris), chickweed (common chickweed, Stellaria media), dayflower (Virginia (VA) dayflower, Commelina virginica), bluegrass (annual bluegrass, Poa annua), naked crabgrass (Digitaria nuda), itchgrass (Rottboellia cochinchinensis), quackgrass (Elytrigia repens), field bindweed (Convolvulus arvensis), spanishneedles (Bidens bipinnata), mallow (common mallow, Malva sylvestris) and Russian thistle (Salsola kali), were planted into a blend of loam soil and sand and treated preemergence with test chemicals formulated in a non-phytotoxic solvent mixture which included a surfactant. At the same time, plants from these weed species were treated with postemergence applications of the test chemicals formulated in the same manner. Plants ranged in height from 2 to 18 cm (1- to 4-leaf stage) for postemergence treatments.
(§2) Treated plants and controls were maintained in a greenhouse for 14 to 21 days, after which time all species were visually evaluated and compared to controls. Plant response ratings, summarized in Table D, are based on a scale of 0 to 100 where 0 is no effect and 100 is complete control. A dash (-) response means no test result.

[2] = tested on: sowthistle (common sowthistle, Sonchus oleraceous)
Description: as §1, §2

[3] = tested on: large crabgrass (Digitaria sanguinalis)
Description: as §1, §2

[4] = tested on: morningglory (pitted morningglory, Ipomoea lacunosa)
Description: as §1, §2

[5] = tested on: barnyardgrass (Echinochloa crus-galli)
Description: as §1, §2

[6] = tested on: Russian thistle (Salsola kali)
Description: as §1, §2

[7] = tested on: purslane (common purslane, Portulaca oleracea)
Description: as §1, §2

[8] = tested on: itchgrass (Rottboellia cochinchinensis)
Description: as §1, §2

kochia (Kochia scoparia) = tested on: kochia (Kochia scoparia)
Description: as §1, §2

[9] = tested on: spanishneedles (Bidens bipinnata)
Description: as §1, §2

[10] = tested on: black mustard (Brassica nigra)
Description: as §1, §2

[11] = tested on: guineagrass (Panicum maximum)
Description: as §1, §2

[12] = tested on: chickweed (common chickweed, Stellaria media); conditions: Postemergence, 31 g ai/ha; scale 0 to 100
Description: as §1, §2

[13] = tested on: nutsedge (purple nutsedge, Cyperus rotundus)
Description: as §1, §2

[14] = tested on: Surinam grass (Brachiaria decumbens)
Description: as §1, §2

[15] = tested on: signalgrass (broadleaf signalgrass, Brachiaria platyphylla)
Description: as §1, §2

[16] = Postemergence, 16 g ai/ha, scale 0 to 100
[17] = Postemergence, 31 g ai/ha, scale 0 to 100
[18] = Postemergence, 125 g ai/ha, scale 0 to 100 (0 no effect, 100 complete control)
[19] = Postemergence, 62 g ai/ha, scale 0 to 100 (0 no effect, 100 complete control)
[20] = Preemergence, 16 g ai/ha, scale 0 to 100, 0 no effect, 100 complete control
[21] = Preemergence, 31 g ai/ha, scale 0 to 100 (0 no effect, 100 complete control)
[22] = Preemergence, 62 g ai/ha, scale 0 to 100
[23] = Preemergence, 125 g ai/ha, scale 0 to 100

SMILES: O=C1CCCC(O)=C1C(=O)c1cnc(-c2cccnc2)n(-c2ccccc2)c1=O [Compound 113, 5-[(2-hydroxy-6-oxo-1-cyclohexen-1-yl)carbonyl]-3-phenyl-2-(3-pyridinyl)-4(3H)-pyrimidone]
- Plant response rating, Dallisgrass [1, 16]: 10
- Plant response rating, Dallisgrass [1, 17]: 10
- Plant response rating, Dallisgrass [1, 18]: 70
- Plant response rating, Dallisgrass [1, 19]: 60
- Plant response rating, Dallisgrass [1, 20]: 5
- Plant response rating, Dallisgrass [1, 21]: 50
- Plant response rating, Dallisgrass [1, 22]: 50
- Plant response rating, Dallisgrass [1, 23]: 100
- Plant response rating, Sowthistle [2, 16]: 90
- Plant response rating, Sowthistle [2, 17]: 95
- Plant response rating, Sowthistle [2, 18]: 100
- Plant response rating, Sowthistle [2, 19]: 100
- Plant response rating, Sowthistle [2, 20]: 50
- Plant response rating, Sowthistle [2, 21]: 75
- Plant response rating, Sowthistle [2, 23]: 100
- Plant response rating, Crabgrass, Large [3, 16]: 60
- Plant response rating, Crabgrass, Large [3, 17]: 60
- Plant response rating, Crabgrass, Large [3, 18]: 70
- Plant response rating, Crabgrass, Large [3, 19]: 70
- Plant response rating, Crabgrass, Large [3, 20]: 20
- Plant response rating, Crabgrass, Large [3, 21]: 30
- Plant response rating, Crabgrass, Large [3, 22]: 95
- Plant response rating, Crabgrass, Large [3, 23]: 95
- Plant response rating, Morningglory [4, 16]: 50
- Plant response rating, Morningglory [4, 17]: 60
- Plant response rating, Morningglory [4, 18]: 90
- Plant response rating, Morningglory [4, 19]: 90
- Plant response rating, Morningglory [4, 20]: 60
- Plant response rating, Morningglory [4, 21]: 60
- Plant response rating, Morningglory [4, 22]: 60
- Plant response rating, Morningglory [4, 23]: 90
- Plant response rating, Barnyardgrass [5, 16]: 65
- Plant response rating, Barnyardgrass ([5]; Postemergence, 31 g ai/ha, scale 0 to 100 (0 no effect, 100 complete control)): 75
- Plant response rating, Barnyardgrass [5, 18]: 80
- Plant response rating, Barnyardgrass [5, 19]: 80
- Plant response rating, Barnyardgrass [5, 20]: 0
- Plant response rating, Barnyardgrass [5, 21]: 0
- Plant response rating, Barnyardgrass [5, 22]: 0
- Plant response rating, Barnyardgrass [5, 23]: 35
- Plant response rating, Russian Thistle [6, 16]: 0
- Plant response rating, Russian Thistle [6, 17]: 0
- Plant response rating, Russian Thistle [6, 18]: 20
- Plant response rating, Russian Thistle [6, 19]: 20
- Plant response rating, Russian Thistle [6, 20]: 0
- Plant response rating, Russian Thistle [6, 21]: 65
- Plant response rating, Russian Thistle [6, 23]: 100
- Plant response rating, Purslane [7, 16]: 30
- Plant response rating, Purslane [7, 17]: 30
- Plant response rating, Purslane [7, 18]: 75
- Plant response rating, Purslane [7, 19]: 50
- Plant response rating, Purslane [7, 20]: 90
- Plant response rating, Purslane [7, 21]: 100
- Plant response rating, Purslane [7, 22]: 100
- Plant response rating, Purslane [7, 23]: 100
- Plant response rating, Itchgrass [8, 16]: 0
- Plant response rating, Itchgrass [8, 17]: 10
- Plant response rating, Itchgrass [8, 18]: 70
- Plant response rating, Itchgrass [8, 19]: 65
- Plant response rating, Itchgrass [8, 20]: 0
- Plant response rating, Itchgrass [8, 21]: 0
- Plant response rating, Itchgrass [8, 22]: 0
- Plant response rating, Itchgrass [8, 23]: 0
- Plant response rating, Kochia (kochia (Kochia scoparia); [16]): 25
- Plant response rating, Kochia (kochia (Kochia scoparia); [17]): 40
- Plant response rating, Kochia (kochia (Kochia scoparia); [18]): 50
- Plant response rating, Kochia (kochia (Kochia scoparia); [19]): 50
- Plant response rating, Kochia (kochia (Kochia scoparia); [21]): 70
- Plant response rating, Kochia (kochia (Kochia scoparia); [22]): 100
- Plant response rating, Kochia (kochia (Kochia scoparia); [23]): 100
- Plant response rating, Spanishneedles [9, 16]: 35
- Plant response rating, Spanishneedles [9, 17]: 35
- Plant response rating, Spanishneedles [9, 18]: 60
- Plant response rating, Spanishneedles [9, 19]: 50
- Plant response rating, Spanishneedles [9, 20]: 0
- Plant response rating, Spanishneedles [9, 21]: 0
- Plant response rating, Spanishneedles [9, 23]: 95
- Plant response rating, Black Mustard [10, 16]: 100
- Plant response rating, Black Mustard [10, 18]: 100
- Plant response rating, Black Mustard [10, 19]: 100
- Plant response rating, Black Mustard [10, 20]: 0
- Plant response rating, Black Mustard [10, 21]: 0
- Plant response rating, Black Mustard [10, 22]: 80
- Plant response rating, Black Mustard [10, 23]: 100
- Plant response rating, Guineagrass [11, 16]: 25
- Plant response rating, Guineagrass [11, 17]: 25
- Plant response rating, Guineagrass [11, 18]: 70
- Plant response rating, Guineagrass [11, 19]: 50
- Plant response rating, Guineagrass [11, 20]: 0
- Plant response rating, Guineagrass [11, 21]: 65
- Plant response rating, Guineagrass [11, 22]: 100
- Plant response rating, Guineagrass [11, 23]: 100
- Plant response rating, Chickweed [12]: 70
- Plant response rating, Nutsedge, Purple [13, 16]: 0
- Plant response rating, Nutsedge, Purple [13, 17]: 10
- Plant response rating, Nutsedge, Purple [13, 18]: 50
- Plant response rating, Nutsedge, Purple [13, 19]: 35
- Plant response rating, Nutsedge, Purple [13, 20]: 0
- Plant response rating, Nutsedge, Purple [13, 21]: 10
- Plant response rating, Nutsedge, Purple [13, 22]: 20
- Plant response rating, Nutsedge, Purple [13, 23]: 80
- Plant response rating, Surinam Grass [14, 16]: 60
- Plant response rating, Surinam Grass [14, 17]: 75
- Plant response rating, Surinam Grass [14, 19]: 80
- Plant response rating, Surinam Grass [14, 21]: 40
- Plant response rating, Surinam Grass [14, 23]: 95
- Plant response rating, Signalgrass [15, 16]: 5
- Plant response rating, Signalgrass [15, 17]: 40
- Plant response rating, Signalgrass [15, 18]: 75
- Plant response rating, Signalgrass [15, 19]: 60
- Plant response rating, Signalgrass [15, 20]: 0
- Plant response rating, Signalgrass [15, 21]: 0
- Plant response rating, Signalgrass [15, 23]: 90
